Four compounds from patent US20230149409A1, “TREATMENT OF HUMAN PAPILLOMAVIRUS-ASSOCIATED CANCERS BY PD-L1 INHIBITORS” (priority 2021, published 2023) can be followed below.

Assay [1] has as its system select advanced solid tumors (HPV+ carcinomas). The assay can be described thus: Phase 1 open-label clinical trial of Compound 24. The assay is classed as in vivo, human. Also on record: key: complete response (CR); partial response (PR); stable disease (SD); progressive disease (PD). An excerpt:
Two open-label, nonrandomized, global multicenter Phase 1 studies in participants with select advanced solid tumors are being conducted for Compounds 24 and 30 in Table 1 supra. In addition to the primary endpoint of determining safety, tolerability, PAD and/or maximum tolerated dose (MTD) of each compound, the studies are exploring preliminary efficacy (complete response (CR), partial response (PR), stable disease (SD), or progressive disease (PD)) in participants with select advanced cancers, including virally mediated tumors such as HPV+ carcinomas. HPV+ tumors can be determined by a local laboratory using p16 IHC, polymerase chain reaction methods, or other locally-available method to detect HPV. Results for patients having solid tumors whose HPV+ status was confirmed, suspected or negative are shown below for Compound 24 and Compound 30 in Tables 4 and 5, respectively.

Assay [2] addresses T1, PD-⅟PD-L1 (recombinant human PD-L1 protein and human PD-1 protein) (Homo sapiens, UniProt Q9NZQ7).
T1 construct: Recombinant human PD-L1 protein (19-238) with a His-tag at the C-terminus; purchased AcroBiosystems PD1-H5229 (PD-L1); PD1-H5257 (PD-1)
The experiment in a line: Homogeneous Time-Resolved Fluorescence (HTRF) PD-1/PD-L1 binding assay. The conditions noted are these: 3 nM PD1, 10 nM PD-L1, 25° C., PBS pH 7.4. For orientation: Time-resolved FRET reads energy transfer from a long-lived donor to a nearby acceptor.

Assay [3] addresses T2, PD-L1 on CD14+ cells in human whole blood (Homo sapiens, UniProt Q9NZQ7).
T2 construct: Cells were gated on CD14+ (BD Biosciences) and PD-L1 expression determined by mean fluorescence intensity; host or cells: CD14+ cells in normal human whole blood, stimulated with human interferon gamma
The assay can be described thus: PD-L1 whole blood internalization assay. The note with it: 1 ng/mL interferon γ, CD14+ gated, 24 hour. It is filed as cell-based. The method in brief:
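Normal human whole blood exposed to compound concentration range plus 1 ng/mL IFN-γ for 18–20 h at 37 °C, then stained for PD-L1 and CD14, red cells lysed/fixed. PD-L1 MFI measured on CD14+ gated cells by flow cytometry; IC50 from percent inhibition versus log concentration fit.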

Assay [4] concerns PD-L1 (U2OS/PD-L1 cells, Jurkat-PD-1-SHP cells). The assay can be described thus: Src Homology Region 2 Domain-containing Phosphatase (SHP) assay. The assay is classed as cell-based. The note with it: Homo sapiens; U2OS/PD-L1 + Jurkat-PD-1-SHP cells, 2 hours. Put shortly: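 U2OS/PD-L1 cells and Jurkat-PD-1-SHP cells (5,000 each per well) were co-incubated with compound in RPMI1640/1% FBS for 2 h at 37° C, with final DMSO 0.05%. PathHunter chemiluminescence was read after 1 h at room temperature. IC50 was fitted from percent of DMSO-control activity against log concentration.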

Assay [5] concerns PD-L1 (PD-L1 aAPC/CHO-K1 cells, Jurkat-PD-1-NFAT effector cells). The experiment in a line: Nuclear Factor of Activated T-cells (NFAT) assay. The note with it: Cricetulus griseus; PD-L1 aAPC/CHO-K1 + Jurkat-PD-1-NFAT cells, 24 hours. The assay is classed as cell-based. The method in brief: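 PD-L1 aAPC/CHO-K1 cells (8000/well) were treated with compound (0.4% DMSO, 2 µM final), then co-cultured with Jurkat-PD-1-NFAT effector cells for 24 hours at 37° C. NFAT luciferase luminescence was normalized to DMSO as fold induction. Maximum induction is relative to the control compound's top FOI; EC50 is from curve fitting.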

T1 sequence (Q9NZQ7 19-238): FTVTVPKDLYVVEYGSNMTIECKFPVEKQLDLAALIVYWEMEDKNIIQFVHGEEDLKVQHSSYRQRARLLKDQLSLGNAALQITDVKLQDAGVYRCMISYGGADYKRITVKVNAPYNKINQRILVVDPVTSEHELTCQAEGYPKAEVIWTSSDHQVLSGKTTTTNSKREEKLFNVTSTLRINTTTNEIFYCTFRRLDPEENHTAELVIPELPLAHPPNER
T2 sequence (Q9NZQ7 19-290): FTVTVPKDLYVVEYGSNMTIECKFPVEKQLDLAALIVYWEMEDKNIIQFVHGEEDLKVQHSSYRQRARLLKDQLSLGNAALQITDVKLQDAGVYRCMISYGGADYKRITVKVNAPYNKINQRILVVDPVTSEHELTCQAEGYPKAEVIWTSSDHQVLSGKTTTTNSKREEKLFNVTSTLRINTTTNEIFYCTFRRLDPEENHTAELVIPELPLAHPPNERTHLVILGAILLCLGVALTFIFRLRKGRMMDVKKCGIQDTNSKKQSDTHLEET

For the compound `Cc1c(Nc2nc(C(F)F)nc3cc(CN4CC[C@@H](O)C4)cnc23)cccc1-c1cccc(-c2nc3cc(CN4CCC(C(=O)O)CC4)cc(C#N)c3o2)c1C` [Compound 24], the “Best Overall Response” value in assay [1] (Patient 1, 200 mg QD, Cervical cancer (AC), HPV/p16 status Not determined) was “SD”; in assay [1] (Patient 2, 200 mg BID, Cervical cancer (clear cell), HPV/p16 status Not determined) it was “PD”; in assay [1] (Patient 3, 400 mg BID, Anal carcinoma, HPV 16 positive) it was “SD”; in assay [1] (Patient 4, 400 mg BID, Anal carcinoma, HPV 16 positive), “SD”; in assay [1] (Patient 5, 300 mg BID, Vaginal cancer (SCC), HPV 16 positive), “SD”; in assay [1] (Patient 6, 400 mg BID, Cervical cancer (SCC), HPV 16 positive), “PR”. In addition, the “Best Overall Response” value is “PD” in assay [1] (Patient 7, 200 mg BID, Anal carcinoma (SCC), Positive unknown type); “PD” in assay [1] (Patient 8, 400 mg BID, Anal carcinoma, HPV 16 positive); “SD” in assay [1] (Patient 9, 600 mg QD, Anal carcinoma (rectovaginal), HPV 16,33,31 positive); “SD” in assay [1] (Patient 10, 400 mg BID, Cervical cancer (AC), HPV 16 positive); “PR” in assay [1] (Patient 11, 400 mg BID, Anal carcinoma (SCC), HPV/p16 status Not determined); “SD” in assay [1] (Patient 12, 600 mg QD, Anal carcinoma (SCC), HPV/p16 status Not determined). The “Best Overall Response” value was “PD” in assay [1] (Patient 13, 400 mg BID, Rectovaginal septum (SCC), P16+, HPV 16); “PD” in assay [1] (Patient 14, 600 mg QD, Anal carcinoma, HPV 16); “PD” in assay [1] (Patient 15, 800 mg QD, Anal carcinoma, HPV 16); “PD” in assay [1] (Patient 16, 800 mg QD, Vulvar (SCC), HPV/p16 status Not determined); “PD” in assay [1] (Patient 18, 800 mg QD, Cervical cancer (SCC), P16 positive); “PD” in assay [1] (Patient 19, 800 mg QD, Anal cancer, HPV 16 positive). Besides, the “Best Overall Response” value is recorded as “PD” in assay [1] (Patient 20, 800 mg QD, Anal cancer, HPV 16 positive) and “SD” in assay [1] (Patient 21, 300 mg BID, Anal cancer, HPV 16). For the same compound, the IC50 is less than 10 nM in assay [2] and less than 100 nM in assay [3].

As for `Cc1c(NC(=O)c2nc3c(n2C)CCN(CCC24CCC(C(=O)O)(CC2)C4)C3)cccc1-c1cccc(NC(=O)c2nc3c(n2C)CCN(CCC24CCC(C(=O)O)(CC2)C4)C3)c1Cl` [Compound 32, 4,4′-(((((2-chloro-2′-methyl-[1,1′-biphenyl]-3,3′-diyl)bis(azanediyl))bis(carbonyl))bis(1-methyl-1,4,6,7-tetrahydro-5H-imidazo[4,5-c]pyridine-2,5-diyl))bis(ethane-2,1-diyl))bis(bicyclo[2.2.1]heptane-1-carboxylic acid)], the IC50 in assay [4] was less than 10 nM; in assay [2], less than 10 nM; in assay [3] it was less than 100 nM. In assay [5], the EC50 was less than 100 nM.

`Cn1c(C(=O)Nc2cccc(-c3cccc(NC(=O)c4nc5c(n4C)CCN(CCC46CCC(C(=O)O)(CC4)C6)C5)c3C#N)c2Cl)nc2c1CCN(CCC13CCC(C(=O)O)(CC1)C3)C2` [Compound 33, 4,4′-(((((2-chloro-2′-cyano-[1,1′-biphenyl]-3,3′-diyl)bis(azanediyl))bis(carbonyl))bis(1-methyl-1,4,6,7-tetrahydro-5H-imidazo[4,5-c]pyridine-2,5-diyl))bis(ethane-2,1-diyl))bis(bicyclo[2.2.1]heptane-1-carboxylic acid)]: the IC50 in assay [4] was less than 10 nM; in assay [2], less than 10 nM; in assay [3], less than 100 nM. Moreover, the EC50 in assay [5] is less than 100 nM.

For the compound `Cc1c(Nc2nc(C(F)F)nc3cc(CN4CC[C@@H](O)C4)cnc23)cccc1-c1cccc(NC(=O)c2nc3c(n2C)CCN(CCC24CCC(C(=O)O)(CC2)C4)C3)c1Cl` [Compound 34, (R)-4-(2-(2-((2-chloro-3′-((2-(difluoromethyl)-7-((3-hydroxypyrrolidin-1-yl)methyl)pyrido[3,2-d]pyrimidin-4-yl)amino)-2′-methyl-[1,1′-biphenyl]-3-yl)carbamoyl)-1-methyl-1,4,6,7-tetrahydro-5H-imidazo[4,5-c]pyridin-5-yl)ethyl)bicyclo[2.2.1]heptane-1-carboxylic acid], the IC50 in assay [4], in assay [2] and in assay [3] was less than 10 nM in each case. In addition, the concentration for a half-maximal effect (EC50) in assay [5] is less than 10 nM.

In general, IC50 refers to the concentration that gives 50% inhibition. The EC50 is the concentration that produces a half-maximal response.
